The source of these data is patent US20260285932A1, “PEPTIDE TYROSINE-TYROSINE ANALOG AND USE THEREOF” (THE UNITED BIO-TECHNOLOGY (HENGQIN) CO., LTD., priority 2023, published 2026).

Some results are limits rather than exact numbers.

For data set [1], the target named is T1, human NPY1 receptor (hNPY1R) (Homo sapiens, UniProt P25929).
T1 construct: expressed in transfected cells
T1 sequence (P25929 1-384): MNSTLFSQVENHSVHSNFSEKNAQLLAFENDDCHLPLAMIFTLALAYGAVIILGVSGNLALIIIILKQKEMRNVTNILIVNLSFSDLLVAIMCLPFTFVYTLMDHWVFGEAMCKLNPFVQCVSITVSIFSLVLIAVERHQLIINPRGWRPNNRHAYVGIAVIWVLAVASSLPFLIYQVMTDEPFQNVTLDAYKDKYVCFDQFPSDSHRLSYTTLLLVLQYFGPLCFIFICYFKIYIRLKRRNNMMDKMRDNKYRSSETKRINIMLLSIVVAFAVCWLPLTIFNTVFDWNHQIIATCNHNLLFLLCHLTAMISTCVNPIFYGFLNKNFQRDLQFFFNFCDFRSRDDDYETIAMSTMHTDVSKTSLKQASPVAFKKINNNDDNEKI
In words: calcium flux (FLIPR) assay, functional activity on human NPY1 receptor. In kind it is cell-based. The settings on record: average, at least 3 independent tests.
Protocol: (§3) 1) Preheated the culture medium, 1×DPBS and 0.05% trypsin EDTA in a 37° C. water bath for more than 30 minutes in advance, and ready for use.
(§4) 3) Cultured cells were taken out from the incubator, added with 1×DPBS, incubated for a moment, suctioned to remove DPBS, added with an appropriate amount of 0.05% trypsin-EDTA for cell digestion, digestion terminated with 10% FBS medium, and dispersed the cells.
(§5) 4) The dispersed cells were transferred into a 50 mL centrifuge tube using a pipette, centrifuged at 1000 rpm for 5 minutes, resuspended in culture medium, dispersed, and counted.
(§6) 5) The cells were diluted with culture medium to 1×10^6 cells/mL, and inoculated at a volume of 20 μL/well of cells onto 384-well poly-Lysine-coated cell plates.
(§7) 6) The cells were incubated overnight at 37° C. in an incubator with 5% CO2. […]
(§8) 4) The calcium ion activation rate was calculated for each well: % Activity=(signal value of sample well-average signal value of low-signal control well)/(average signal value of high-signal control well-average signal value of low-signal control well). Using the logarithm of the concentration of analogues as the horizontal axis and the activation rate of calcium ion fluorescence signal as the vertical axis, the “Nonlinear regression (curve fit)-log (antigen) vs. response Variable slope” model in GraphPad Prism 5.0 was used for fitting to calculate the EC50 of the sample.

For data set [2], the target named is T2, recombinant human NPY2 receptor (Homo sapiens, UniProt P49146).
T2 construct: expressed in transfected cells; host or cells: HEK 293
T2 sequence (P49146 1-381): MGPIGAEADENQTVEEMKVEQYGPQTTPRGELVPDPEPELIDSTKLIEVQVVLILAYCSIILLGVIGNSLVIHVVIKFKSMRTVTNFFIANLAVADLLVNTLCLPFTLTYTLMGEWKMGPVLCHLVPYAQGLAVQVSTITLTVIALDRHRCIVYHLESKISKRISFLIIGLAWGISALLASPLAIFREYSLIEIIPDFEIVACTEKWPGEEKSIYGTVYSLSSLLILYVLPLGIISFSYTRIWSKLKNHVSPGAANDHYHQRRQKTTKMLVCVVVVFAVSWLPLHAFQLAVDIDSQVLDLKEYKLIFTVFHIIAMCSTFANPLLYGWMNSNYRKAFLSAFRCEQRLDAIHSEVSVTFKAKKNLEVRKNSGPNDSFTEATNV
Nature of the data set: cAMP assay, in vitro functional activity on NPY2 receptors. The settings on record: inhibition of Forskolin-induced cAMP in HEK 293 cells overexpressing hNPY2R; average, at least 3 independent tests. In kind it is cell-based. The method, then:
2) Preparation of cells: the cultured cells were collected into a 15 mL sterile centrifuge tube, and centrifuged at 1000 rpm for 5 minutes, with the supernatant being discarded. 10 mL of 1×PBS was added, mixed gently, and centrifuged at 1000 rpm for 5 minutes, with the supernatant being discarded.
4) According to the arrangement order of Map analogues, 100 nL of prepared analogues were added to a 384-well cell reaction plate using Echo. After addition, they were centrifuged at 1000 rpm for 1 minute.
5) 5 μL of 2 μM Forskolin (prepared with detection buffer) was added to a 384-well cell reaction plate using Multidrop Combi and centrifuged at 1000 rpm for 1 minute. 5 μL of detection buffer containing cells was added to a 384-well reaction plate, ensuring a cell count of 3000 cells per well.
6) 10 μL cAMP detection reagent solution (1×cell lysis buffer 9.5 mL, 1×D2-cAMP solution, 1×cAMP-antibody) was added to the corresponding wells of the cell reaction plate using Multidrop Combi. It was covered with a lid and incubated at room temperature in the dark for 1 hour.
7) After incubation for 1 hour, it was placed in an EnVision microplate reader for measurement.

Data set [3] can be described thus: pharmacokinetics in crab-eating macaques. In kind it is in vivo. The settings on record: male crab-eating macaque, 0.246 mg/kg single s.c., plasma. The protocol: (§1) Blood samples were collected from each animal at each time point after administration, and the blood samples were centrifuged at around 4° C., 3200 g, for 10 minutes. Plasma was collected separately, transferred to pre-labeled 96-well plates or polypropylene tubes, speedily frozen on dry ice, and stored at −60° C. or lower until LC-MS/MS analysis.
(§2) LC-MS/MS method was adopted to determine the concentration of the measured analogues in blood samples. The data on the changes in plasma concentration over time were plotted into a chart and analyzed using non partitioned methods with Phoenix WinNonlin 6.3 software program. Relevant PK parameters were calculated based on the administration routes.
The plasma pharmacokinetics of PYY analogues in male crab-eating macaques were evaluated after a single subcutaneous administration of 0.246 mg/kg Analogue 3. Blood samples were collected from 2 crab-eating macaques at each time point after administration for 1 h, 2 h, 4 h, 8 h, 12 h, 24 h, 48 h, 72 h, 96 h, 120 h, 144 h, 168 h, 192 h, 240 h, 288 h, 336 h, 408 h, 504 h, extending to 504 hours. Due to the use of discontinuous sampling to evaluate the kinetics of PYY analogues in crab-eating macaques, the pharmacokinetic parameters of Analogue 3 after a single subcutaneous administration of 0.246 mg/kg were listed using average concentration-time data.

Data set [4] in a line: pharmacokinetics in SD rats. Conditions: male rat, 0.492 mg/kg single s.c., plasma. In kind it is in vivo. The method, then:
as §1, §2
The plasma pharmacokinetics of PYY analogues in male SD rats were evaluated after a single subcutaneous administration of 0.492 mg/kg Analogue 3. Blood samples were collected from 3 rats at each time point after administration for 0.5 h, 1 h, 2 h, 4 h, 8 h, 12 h, 16 h, 24 h, 48 h, 72 h, 96 h, 120 h, 144 h, 168 h, extending to 168 h. Due to the use of discontinuous sampling to evaluate the kinetics of PYY analogues in rats, the pharmacokinetic parameters of Analogue 3 after a single subcutaneous administration of 0.492 mg/kg were listed using average concentration-time data.

Data set [5] addresses T3, human Y5 receptor (hNPY5R) (Homo sapiens, UniProt Q15761).
T3 sequence (Q15761 1-445): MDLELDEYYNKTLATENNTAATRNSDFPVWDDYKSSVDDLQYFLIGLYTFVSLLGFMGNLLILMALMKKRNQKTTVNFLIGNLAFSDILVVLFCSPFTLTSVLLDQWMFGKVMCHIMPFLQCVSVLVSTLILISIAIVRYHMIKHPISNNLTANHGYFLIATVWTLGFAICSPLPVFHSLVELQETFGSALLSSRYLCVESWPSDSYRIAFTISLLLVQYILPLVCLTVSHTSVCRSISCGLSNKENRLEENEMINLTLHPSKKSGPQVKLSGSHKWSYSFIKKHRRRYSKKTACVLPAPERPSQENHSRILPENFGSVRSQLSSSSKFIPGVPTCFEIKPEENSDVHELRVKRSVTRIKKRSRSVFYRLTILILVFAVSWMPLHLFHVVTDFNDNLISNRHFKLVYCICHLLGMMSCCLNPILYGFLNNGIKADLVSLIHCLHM
Nature of the data set: calcium flux (FLIPR) assay, functional activity on human Y5 receptor. Conditions: read-out: hNPY5R EC50, average, at least 3 independent tests.
Protocol: as §3, §4, §5, §6, §7, §8

Data set [6] in a line: food intake and body weight of normal mice after a single subcutaneous injection. In kind it is in vivo. The settings on record: C57BL/6 mice, over 3 days; for Body weight changes: vs baseline. The method, then:
6-8 weeks old male C57BL/6 mice were fed in animal feeding rooms with strictly controlled environmental conditions, the temperature in the feeding room was maintained at 20° C.-24° C. and the humidity was maintained at 30%-70%. The light cycle in the animal feeding room was 12 hours (starting at 7:00 am and ending at 7:00 pm). During the experiment, animals were kept in single cages and toys were provided in each cage. During the experiment, animals were free to consume food (growth/reproduction feed for mice and rats) and water.
Body weight without fasting and initial food weight before administration were recorded, and the animals were administered with a single subcutaneous injection, and the daily body weight and food intake weight were recorded for 3 days after administration. The activity, water intake, diet, and body weight changes of animals were observed every day. The changes in body weight and food intake weight were calculated compared to the baseline levels of each group (the initial body weight and food intake weight before administration), with body weight changes expressed as percentages (baseline was 100%).

In the case of “PKPEK(AEEAc-γGlu-CO(CH2)16COOH)PE-Aib-DASPEEWQRYY-Aib-ELRHYLNWLTRQRY-NH2 [Analogue 3]”, the EC50 in data set [1] was greater than 50 nM; in data set [2] it was 0.037 nM; in data set [5], 92.7 nM. Moreover, the values for the AUCinf in data set [3] and in data set [4] were 336.537 µg·h/mL and 79.609 µg·h/mL, respectively. In addition, the Cmax turned out to be 1.775 µg/mL in data set [3] and 1.941 µg/mL in data set [4]. Moreover, the T1/2 in data set [3] amounted to 125.5 h; in data set [4], 24.7 h. In addition, the Tmax was 12 h in data set [3] and 13.3 h in data set [4]. Besides, the “Accumulated food intake weight” value in data set [6] (3 nmol/kg single s.c.) turned out to be 9.73 ± 0.48 g; in data set [6] (10 nmol/kg single s.c.), 8.24 ± 0.27 g; in data set [6] (30 nmol/kg single s.c.), 6.24 ± 0.26 g. The Body weight changes is on record as −1.04% ± 2.02% in data set [6] (3 nmol/kg single s.c.), −0.69% ± 1.64% in data set [6] (10 nmol/kg single s.c.) and −6.52% ± 1.37% in data set [6] (30 nmol/kg single s.c.).
As to “PKPEK(AEEAc-γGlu-CO(CH2)16COOH)PEED-Aib-SPEEWQRYY-Aib-SLRHYLNWLTRQRY-NH2 [Analogue 1]”, the EC50 was greater than 50 nM in data set [1] and 0.041 nM in data set [2]. In addition, the “Accumulated food intake weight” value was found to be 11.54 ± 0.40 g in data set [6] (3 nmol/kg single s.c.), 9.29 ± 0.27 g in data set [6] (10 nmol/kg single s.c.) and 8.10 ± 0.26 g in data set [6] (30 nmol/kg single s.c.). The Body weight changes in data set [6] (3 nmol/kg single s.c.) is recorded as 2.32% ± 2.53%; in data set [6] (10 nmol/kg single s.c.), 1.23% ± 2.92%; in data set [6] (30 nmol/kg single s.c.), 0.51% ± 2.56%.
